Patent publication US9328138B2 (priority 2011, dated 2016)
pKi: −log10 of the molar value.

Experiments:
[1] = molecular target: HCV NS3 protease genotype 3a (3A-1) (Hepatitis C virus genotype 3a, UniProt Q81258); assay: HCV NS3 protease time-resolved fluorescence (TRF) assay, genotype 3a; format: biochemical; conditions: Ki 3a
Method in brief: (§1)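 Assay buffer: 50 mM HEPES pH 7.5, 150 mM NaCl, 0.1% PEG 8000, 0.15% Triton X-100. Ten-minute enzyme–inhibitor preincubation; substrate at 25 nM final; 6 h reaction, room temperature; signal/background set at 5-20 by enzyme amount.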

[2] = molecular target: T1, HCV genotype 1b (BK) NS3 modified enzyme with a R155K mutation (Hepatitis C virus genotype 1b, UniProt P26663, R1181K); assay: HCV NS3 protease time-resolved fluorescence (TRF) assay, genotype 1b R155K; format: biochemical; conditions: Ki 1b R155K, genotype 1b (BK) NS3 R155K; single value
T1 construct: HCV genotype 1b (BK) NS3 modified enzyme
Method in brief: as §1

| Compound | pKi [1] | pKi [2] |
| --- | --- | --- |
| C=C[C@@H]1C[C@]1(NC(=O)[C@@H]1C[C@@H]2CN1C(=O)[C@H](C1CCCC1)NC(=O)O[C@@H]1CCC[C@H]1CC/C=C/Cc1c(nc3ccccc3c1OCCCn1cccc1)O2)C(=O)NS(=O)(=O)C1(C)CC1 [Example 55, (3aR,7S,10S,12R,21E,24aS)-7-cyclopentyl-N-[(1R,2S)-2-ethenyl-1-{[(1-methylcyclopropyl)sulfonyl]carbamoyl}cyclopropyl]-5,8-dioxo-19-[3-(1H-pyrrol-1-yl)propoxy]-1,2,3,3a,5,6,7,8,11,12,20,23,24,24a-tetradecahydro-10H-9,12-methanocyclopenta[18,19][1,10,3,6] dioxadiazacyclononadecino[11,12-b] quinoline-10-carboxamide] | 8.41 | 9.66 |
| C=C[C@@H]1C[C@]1(NC(=O)[C@@H]1C[C@@H]2CN1C(=O)[C@H](C(C)(C)C)NC(=O)O[C@@H]1CCC[C@H]1CC/C=C/Cc1c(nc3ccccc3c1OCCCOCCOC)O2)C(=O)NS(=O)(=O)C1(C)CC1 [Example 56, (3aR,7S,10S,12R,21E,24aS)-7-tert-butyl-N-[(1R,2S)-2-ethenyl-1-{[(1-methylcyclopropyl)sulfonyl]carbamoyl}cyclopropyl]-19-[3-(2-methoxyethoxy)propoxy]-5,8-dioxo-1,2,3,3a,5,6,7,8,11,12,20,23,24,24a-tetradecahydro-10H-9,12-methanocyclopenta[18,19][1,10,3,6]dioxadiazacyclononadecino[11,12-b] quinoline-10-carboxamide] | 9.02 | 10.05 |
| C=C[C@@H]1C[C@]1(NC(=O)[C@@H]1C[C@@H]2CN1C(=O)[C@H](C1CCCC1)NC(=O)O[C@@H]1CCC[C@H]1CC/C=C/Cc1c(nc3ccccc3c1OCCCOCCOC)O2)C(=O)NS(=O)(=O)C1(C)CC1 [Example 57, (3aR,7S,10S,12R,21E,24aS)-7-cyclopentyl-N-[(1R,2S)-2-ethenyl-1-{[(1-methylcyclopropyl)sulfonyl]carbamoyl}cyclopropyl]-19-[3-(2-methoxyethoxy)propoxy]-5,8-dioxo-1,2,3,3a, 5,6,7,8,11,12,20,23,24,24a-tetradecahydro-10H-9,12-methanocyclopenta[18,19][1,10,3,6]dioxadiazacyclononadecino[11,12-b] quinoline-10-carboxamide] | 8.64 | 9.96 |
| C=C[C@@H]1C[C@]1(NC(=O)[C@@H]1C[C@@H]2CN1C(=O)[C@H](C1CCCC1)NC(=O)O[C@@H]1CCC[C@H]1CC/C=C/Cc1c(nc3ccccc3c1OCCCN1CCCCC1)O2)C(=O)NS(=O)(=O)C1(C)CC1 [Example 58, (3aR,7S,10S,12R,21E,24aS)-7-cyclopentyl-N-[(1R,2S)-2-ethenyl-1-{[(1-methylcyclopropyl)sulfonyl]carbamoyl}cyclopropyl]-5,8-dioxo-19-[3-(piperidin-1-yl)propoxy]-1,2,3,3a,5,6,7,8,11,12,20,23,24,24a-tetra decahydro-10H-9,12-methanocyclopenta[18,19][1,10,3,6] dioxadiazacyclononadecino[11,12-b] quinoline-10-carboxamide] | 9.24 | 10.00 |
| C=C[C@@H]1C[C@]1(NC(=O)[C@@H]1C[C@@H]2CN1C(=O)[C@H](C(C)(C)C)NC(=O)O[C@@H]1CCC[C@H]1CC/C=C/Cc1c(nc3ccccc3c1OCCCN1CCCCC1)O2)C(=O)NS(=O)(=O)C1(C)CC1 [Example 59, (3aR,7S,10S,12R,21E,24aS)-7-tert-butyl-N-[(1R,2S)-2-ethenyl-1-{[(1-methylcyclopropyl)sulfonyl]carbamoyl}cyclopropyl]-5,8-dioxo-19-[3-(piperidin-1-yl)propoxy]-1,2,3,3a,5,6,7,8,11,12,20,23,24,24a-tetra decahydro-10H-9,12-methanocyclopenta[18,19][1,10,3,6] dioxadiazacyclononadecino[11,12-b] quinoline-10-carboxamide] | 9.35 | 9.96 |
| C=C[C@@H]1C[C@]1(NC(=O)[C@@H]1C[C@@H]2CN1C(=O)[C@H](C1CCCC1)NC(=O)O[C@@H]1CCC[C@H]1CCCCCc1c(nc3ccccc3c1OCCN1CC3CCC1C3)O2)C(=O)NS(=O)(=O)C1CC1 [Example 60, (3aR,7S,10S,12R,24aR)-19-[2-(2-azabicycle [2.2.1]hept-2-yl)ethoxy]-7-cyclo pentyl-N-{(1R,2S)-1-[(cyclopropylsulfonyl)carbamoyl]-2-ethenylcyclopropyl}-5,8-dioxo-1,2,3,3a,5,6,7,8,11,12,20,21,22,23,24,24a-hexadecahydro-10H-9,12-methanocyclopenta [18,19][1,10,3,6]dioxadiazacyclononadecino [11,12-b]quinoline-10-carboxamide] | 7.92 | 9.21 |
| C=C[C@@H]1C[C@]1(NC(=O)[C@@H]1C[C@@H]2CN1C(=O)[C@H](C(C)(C)C)NC(=O)O[C@@H]1CCC[C@H]1CCCCCc1c(nc3ccccc3c1OCCN1CCOCC1)O2)C(=O)NS(=O)(=O)C1(COC)CC1 [Example 61, (3aR,7S,10S,12R,24aR)-7-tert-butyl-N-[(1R,2S)-2-ethenyl-1-({[1-(methoxymethyl)cyclopropyl]sulfonyl}carbamoyl)cyclopropyl]-19-[2-(morpholin-4-yl)ethoxy]-5,8-dioxo-1,2,3,3a,5,6,7,8,11,12,20,21,22,23,24,24a-hexadecahydro-10H-9,12-methanocyclopenta[18,19][1,10,3,6]dioxadiazacyclononadecino[11,12-b]quinoline-10-carboxamide] | 7.70 | 9.15 |
| C=CC1C[C@]1(NC(=O)[C@@H]1C[C@@H]2CN1C(=O)[C@H](C(C)(C)C)NC(=O)O[C@@H]1CCC[C@H]1CCCCCc1c(nc3ccccc3c1OCCN1CCOCC1)O2)C(=O)NS(=O)(=O)C1(C(=C)C)CC1 (some centres unmarked) [Example 62] | 7.07 | 8.80 |
| C=C[C@@H]1C[C@]1(NC(=O)[C@@H]1C[C@@H]2CN1C(=O)[C@H](C(C)(C)C)NC(=O)O[C@@H]1CCC[C@H]1CCCCCc1c(nc3ccccc3c1OCCN(C)C)O2)C(=O)NS(=O)(=O)C1(COC)CC1 [Example 63, (3aR,7S,10S,12R, 24aR)-7-tert-butyl-19-[2-(dimethylamino)ethoxy]-N-[(1R,2S)-2-ethenyl-1-({[1-(methoxymethyl)cyclopropyl]sulfonyl}carbamoyl)cyclopropyl]-5,8-dioxo-1,2,3,3a, 5,6,7,8,11,12,20, 21,22,23,24,24a-hexadecahydro-10H-9,12-methanocyclopenta [18,19][1,10,3,6]dioxa-diazacyclononadecino [11,12-b]quinoline-10-carboxamide] | 8.14 | 9.46 |
| C=C[C@@H]1C[C@]1(NC(=O)[C@@H]1C[C@@H]2CN1C(=O)[C@H](C(C)(C)C)NC(=O)O[C@@H]1CCC[C@H]1CCCCCc1c(nc3ccccc3c1OCCCN1CCOCC1)O2)C(=O)NS(=O)(=O)C1(COC)CC1 [Example 64, (3aR,7S,10S,12R, 24aR)-7-tert-butyl-N-[(1R,2S)-2-ethenyl-1-({[1-(methoxymethyl)cyclopropyl]sulfonyl}carbamoyl)cyclopropyl]-19-[3-(morpholin-4-yl)propoxy]-5,8-dioxo-1,2,3,3a,5,6,7,8, 11,12,20,21,22,23,24, 24a-hexadecahydro-10H-9,12-methanycyclopenta [18,19][1,10,3,6] dioxadiazacyclo-nonadecino [11,12-b]quinoline-10-carboxamide] | 8.26 | 9.37 |
